Assay results published in patent publication US12498382B2, “Biomarkers for vitiligo” (INCYTE CORPORATION, priority 2019, dated 2025).

Test system: HaCaT cells
Assay: Normalized expression of target genes in HaCaT cells stimulated with TNFα and IFNγ in presence/absence of JAK inhibitors (QuantiGene Plex)
Assay type: cell-based, human
Conditions: for MFI, normalized expression of IYK2: gene IYK2; for MFI, normalized expression of IYK2 / MFI, normalized expression of TNF / MFI, normalized expression of VEGFA: HaCaT, normalized to HPRT1, mean ± standard error; for MFI, normalized expression of TNF: gene TNF; for MFI, normalized expression of VEGFA: gene VEGFA
Experimental: Transformed human keratinocyte (HaCaT) cells were purchased from AddexBio (Catalog #T0020001) and cultured as outlined in Example 5. […] After 48 hours, cell culture media was removed from 24 well plates and replaced with 250 uL of media containing serial diluted drug, then incubated for 15 minutes at 37° C./5% CO2. After drug incubation, 250 uL of combinatory stimulation containing Recombinant Human Interferon gamma (R&D Systems, Catalog #285-IF-100) and Recombinant Human Tumor Necrosis Factor alpha (R&D Systems, Catalog #210-TA-020) was added to plates. The final concentration of Recombinant Human Interferon gamma and Recombinant Human Tumor Necrosis Factor alpha was 25 ng/mL of each cytokine. Cytokine stimulation added to wells containing drug brought the final concentrations for each drug treatment to 25 nM, 50 nM, 100 nM, and 200 nM. Treated plates were mixed by gentle agitation for 30 seconds then incubated for 24 hours at 37° C./5% CO2. At the end of the 24 hour incubation media was immediately removed from each plate.
RNA was isolated from HaCaT cells using the QuantiGene Plex Assay reagents and protocols (Affymetrix, Catalog #QGP-232-M18042302) according to the manufacturer's guidelines. Cells were washed with 1×DPBS then lysed by incubation with provided QuantiGene lysis buffer for 30 minutes at 50-55° C. Cell lysates were incubated for 18-24 hours at 55° C. with capture beads and probe set designed to specifically hybridize to mRNA from targets of interest. Genes included housekeeping genes (e.g., HPRT1 and GAPDH) used for the normalization of the results. After the 18-24 hour incubation signal was amplified utilizing branched DNA methodologies, according to the manufacturer's procedures (Affymetrix, Catalog #QGP-232-M18042302). After hybridization and wash steps assay plate was read on the Luminex 200 and data were expressed as Net Median Fluorescence Intensity. Data was then normalized to the Net Median Fluorescence Intensity of the housekeeping gene HPRT1 (Table 14).

[1] = TNFα+IFNγ 25 ng/mL, Drug Conc 25 nM
[2] = TNFα+IFNγ 25 ng/mL, Drug Conc 50 nM
[3] = TNFα+IFNγ 25 ng/mL, Drug Conc 100 nM
[4] = TNFα+IFNγ 25 ng/mL, Drug Conc 200 nM
[5] = TNFα (25 ng/mL) and IFNγ (25 ng/mL), 1st (lowest, likely 25 nM) of 4 drug conc
[6] = TNFα (25 ng/mL) and IFNγ (25 ng/mL), 2nd (likely 50 nM) of 4 drug conc
[7] = TNFα (25 ng/mL) and IFNγ (25 ng/mL), 3rd (likely 100 nM) of 4 drug conc
[8] = TNFα (25 ng/mL) and IFNγ (25 ng/mL), 4th (highest, likely 200 nM) of 4 drug conc
[9] = drug without TNFα/IFNγ stimulation
[10] = no stimulation, Drug Conc 200 nM

Cc1n[nH]c(C)c1-c1cnn(C2(CC#N)CN(c3cc(F)c(C(=O)N[C@@H](C)C(F)(F)F)cc3F)C2)c1 [Cpd C, 4-[3-(Cyanomethyl)-3-(3′,5′-dimethyl-1H,1′H-4,4′-bipyrazol-1-yl)azetidin-1-yl]-2,5-difluoro-N-[(1S)-2,2,2-trifluoro-1-methylethyl]benzamide]
AREG normalized expression MFI [1]: 703.71 ± 20.69
CCL17 normalized expression MFI [1]: 2.63 ± 0.4
CCL18 normalized expression MFI [1]: 2.11 ± 0.28
FLG normalized expression MFI [1]: 62.5 ± 8.63
IL6 normalized expression MFI [1]: 135.32 ± 3.36
IL8 normalized expression MFI [1]: 387.86 ± 17.53
IL17A normalized expression MFI [1]: 0.87 ± 0.14
IL22 normalized expression MFI [1]: 1.23 ± 0.21
IL23A normalized expression MFI [1]: 42.15 ± 1.61
IL31 normalized expression MFI [1]: 1.52 ± 0.37
ILIA normalized expression MFI [1]: 1370.52 ± 35.28
JAK1 normalized expression MFI [1]: 206.29 ± 6.84
JAK2 normalized expression MFI [1]: 114.94 ± 2.16
JAK3 normalized expression MFI [1]: 1.02 ± 0.19
LOR normalized expression MFI [1]: 23.22 ± 10.14
S100A7 normalized expression MFI [1]: 5.33 ± 1.21
S100A12 normalized expression MFI [1]: 1.31 ± 0.16
SERPINB3 normalized expression MFI [1]: 2.58 ± 0.41
SERPINB4 normalized expression MFI [1]: 3.53 ± 0.5
STAT1 normalized expression MFI [1]: 3103.89 ± 185.88
STAT3 normalized expression MFI [1]: 1557.84 ± 58.15
STAT4 normalized expression MFI [1]: 5.65 ± 0.44
STAT5A normalized expression MFI [1]: 22.82 ± 1.77
STAT5B normalized expression MFI [1]: 40.13 ± 1.97
STAT6 normalized expression MFI [1]: 1020.89 ± 23.57
AREG normalized expression MFI [2]: 719.73 ± 30.82
CCL17 normalized expression MFI [2]: 2.94 ± 0.35
CCL18 normalized expression MFI [2]: 2.13 ± 0.46
FLG normalized expression MFI [2]: 59.01 ± 8.69
IL6 normalized expression MFI [2]: 128.14 ± 6.83
IL8 normalized expression MFI [2]: 369.89 ± 17.71
IL17A normalized expression MFI [2]: 1.07 ± 0.16
IL22 normalized expression MFI [2]: 1.4 ± 0.19
IL23A normalized expression MFI [2]: 45.16 ± 2.92
IL31 normalized expression MFI [2]: 1.59 ± 0.33
ILIA normalized expression MFI [2]: 1308.7 ± 45.12
JAK1 normalized expression MFI [2]: 194.2 ± 8.24
JAK2 normalized expression MFI [2]: 107.16 ± 2.86
JAK3 normalized expression MFI [2]: 0.99 ± 0.16
LOR normalized expression MFI [2]: 32.81 ± 17.47
S100A7 normalized expression MFI [2]: 3.62 ± 0.78
S100A12 normalized expression MFI [2]: 1.18 ± 0.18
SERPINB3 normalized expression MFI [2]: 2.6 ± 0.69
SERPINB4 normalized expression MFI [2]: 4.24 ± 1.6
STAT1 normalized expression MFI [2]: 3049.62 ± 159.5
STAT3 normalized expression MFI [2]: 1519.61 ± 69.92
STAT4 normalized expression MFI [2]: 5.41 ± 0.33
STAT5A normalized expression MFI [2]: 20.71 ± 1.77
STAT5B normalized expression MFI [2]: 38.42 ± 2.28
STAT6 normalized expression MFI [2]: 982.62 ± 14.34
AREG normalized expression MFI [3]: 669.44 ± 30.13
CCL17 normalized expression MFI [3]: 3.06 ± 0.47
CCL18 normalized expression MFI [3]: 2.55 ± 0.87
FLG normalized expression MFI [3]: 65.04 ± 9.31
IL6 normalized expression MFI [3]: 112.13 ± 3.37
IL8 normalized expression MFI [3]: 361.05 ± 16.02
IL17A normalized expression MFI [3]: 0.89 ± 0.16
IL22 normalized expression MFI [3]: 1.19 ± 0.2
IL23A normalized expression MFI [3]: 48.11 ± 1.85
IL31 normalized expression MFI [3]: 1.49 ± 0.35
ILIA normalized expression MFI [3]: 1194.29 ± 12.27
JAK1 normalized expression MFI [3]: 193.28 ± 4.55
JAK2 normalized expression MFI [3]: 95.51 ± 3.13
JAK3 normalized expression MFI [3]: 0.99 ± 0.15
LOR normalized expression MFI [3]: 65.94 ± 37.89
S100A7 normalized expression MFI [3]: 4.3 ± 1.17
S100A12 normalized expression MFI [3]: 1.48 ± 0.32
SERPINB3 normalized expression MFI [3]: 3.63 ± 1.32
SERPINB4 normalized expression MFI [3]: 7.56 ± 3.67
STAT1 normalized expression MFI [3]: 3028.93 ± 125.19
STAT3 normalized expression MFI [3]: 1457.24 ± 54.48
STAT4 normalized expression MFI [3]: 5.32 ± 0.46
STAT5A normalized expression MFI [3]: 18.44 ± 1.85
STAT5B normalized expression MFI [3]: 36.56 ± 1.18
STAT6 normalized expression MFI [3]: 943.66 ± 25.99
AREG normalized expression MFI [4]: 681.68 ± 16.1
CCL17 normalized expression MFI [4]: 2.59 ± 0.34
CCL18 normalized expression MFI [4]: 1.74 ± 0.62
FLG normalized expression MFI [4]: 68.26 ± 8.04
IL6 normalized expression MFI [4]: 101.17 ± 2.91
IL8 normalized expression MFI [4]: 350.6 ± 11.85
IL17A normalized expression MFI [4]: 0.87 ± 0.13
IL22 normalized expression MFI [4]: 1.14 ± 0.25
IL23A normalized expression MFI [4]: 51.86 ± 2.95
IL31 normalized expression MFI [4]: 1.32 ± 0.34
ILIA normalized expression MFI [4]: 1151.31 ± 20.01
JAK1 normalized expression MFI [4]: 182.86 ± 4.07
JAK2 normalized expression MFI [4]: 91.17 ± 2.15
JAK3 normalized expression MFI [4]: 0.85 ± 0.15
LOR normalized expression MFI [4]: 37.49 ± 25.57
S100A7 normalized expression MFI [4]: 3.95 ± 1.14
S100A12 normalized expression MFI [4]: 1.06 ± 0.2
SERPINB3 normalized expression MFI [4]: 2.14 ± 0.67
SERPINB4 normalized expression MFI [4]: 3.54 ± 1.5
STAT1 normalized expression MFI [4]: 2977.26 ± 166.85
STAT3 normalized expression MFI [4]: 1483.1 ± 51.73
STAT4 normalized expression MFI [4]: 5.04 ± 0.36
STAT5A normalized expression MFI [4]: 17.64 ± 1.46
STAT5B normalized expression MFI [4]: 36.34 ± 1.97
STAT6 normalized expression MFI [4]: 966.51 ± 12.3
MFI, normalized expression of IYK2 [5]: 283.97 ± 8.59
MFI, normalized expression of IYK2 [6]: 273.68 ± 7.44
MFI, normalized expression of IYK2 [7]: 266 ± 6.82
MFI, normalized expression of IYK2 [8]: 263.49 ± 5.05
MFI, normalized expression of IYK2 [9]: 205.57 ± 10.87
MFI, normalized expression of TNF [5]: 24.07 ± 1.43
MFI, normalized expression of TNF [6]: 26.51 ± 1.84
MFI, normalized expression of TNF [7]: 25.93 ± 1.59
MFI, normalized expression of TNF [8]: 24.73 ± 1.29
MFI, normalized expression of TNF [9]: 2.19 ± 0.56
MFI, normalized expression of VEGFA [5]: 570.27 ± 10.88
MFI, normalized expression of VEGFA [6]: 531.53 ± 11.24
MFI, normalized expression of VEGFA [7]: 514.04 ± 7.46
MFI, normalized expression of VEGFA [8]: 492.12 ± 8.32
MFI, normalized expression of VEGFA [9]: 199.88 ± 6.52
AREG normalized expression MFI [10]: 242.5 ± 16.14
CCL17 normalized expression MFI [10]: 0.99 ± 0.28
CCL18 normalized expression MFI [10]: 1.56 ± 0.73
FLG normalized expression MFI [10]: 211.48 ± 29.55
IL6 normalized expression MFI [10]: 4.97 ± 0.36
IL8 normalized expression MFI [10]: 55.48 ± 3.11
IL17A normalized expression MFI [10]: 0.51 ± 0.1
IL22 normalized expression MFI [10]: 0.71 ± 0.11
IL23A normalized expression MFI [10]: 9.42 ± 0.97
IL31 normalized expression MFI [10]: 0.79 ± 0.2
ILIA normalized expression MFI [10]: 88.72 ± 5.9
JAK1 normalized expression MFI [10]: 159.13 ± 7.08
JAK2 normalized expression MFI [10]: 23.67 ± 0.92
JAK3 normalized expression MFI [10]: 0.63 ± 0.1
LOR normalized expression MFI [10]: 19.48 ± 9.66
S100A7 normalized expression MFI [10]: 4.38 ± 1.15
S100A12 normalized expression MFI [10]: 0.72 ± 0.18
SERPINB3 normalized expression MFI [10]: 2.31 ± 0.77
SERPINB4 normalized expression MFI [10]: 3.37 ± 1.57
STAT1 normalized expression MFI [10]: 522.12 ± 14.19
STAT3 normalized expression MFI [10]: 728.97 ± 20.48
STAT4 normalized expression MFI [10]: 4.01 ± 0.45
STAT5A normalized expression MFI [10]: 1.44 ± 0.41
STAT5B normalized expression MFI [10]: 50.91 ± 4.38
STAT6 normalized expression MFI [10]: 723.56 ± 20.76
